Measurements published in patent US8003093B2, “B cell-based vaccine loaded with the ligand of natural killer T cell and antigen” (Seoul National University Industry Foundation, priority 2006, dated 2011).

Experiments:
[1] = Dose escalation study of αGalCer; format: in vivo
Text: There is a little, if ever, chance to show a slight systemic side effect (Giaccone et al., Clin. Cancer Res., 8: 3702, 2002).

[2] = rodents and apes; cited from earlier work
[3] = 2200 μg/kg, mouse; cited from earlier work
[4] = clinical trial, systemic administration; cited from earlier work

**Q.** Which dose-limiting toxicity [1] does the source give for `CCCCCCCCCCCCCCCCCCCCCCCCCC(=O)N[C@@H](CO[C@H]1O[C@H](CO)[C@H](O)[C@H](O)[C@H]1O)[C@H](O)[C@H](O)CCCCCCCCCCCCCC` [αGalCer, Alpha-galactosylceramide] here?
**A.** did not cause dose-limiting toxicity

**Q.** And the toxicity [2]?
**A.** doesn't seem to induce toxicity

**Q.** And the side effects [3]?
**A.** No side effects

**Q.** What about the side effect [4] of the same molecule?
**A.** a light headache
